Laboratory results reported in PMC11971306, “Enzymatic Birch reduction via hydrogen atom transfer at [4Fe-4S]-OH2 and [8Fe-9S] clusters” (Nature Communications, 2025).

Assays:
BzdNO [1] = target: T1, BzdNO (Azoarcus sp. CIB, UniProt Z9PSW1D6O9); experiment: X-ray crystallography, no ligand added; assay type: binding; conditions: weakly occupied, co-purified; partially CoA-free state
T1 construct: BzdN + BzdO heterodimer (catalytic dimer of class I benzoyl-CoA reductase, BZD type) without BzdPQ; C-terminal Strep-tag on BzdO; anaerobic purification; about 95 kDa theoretical, 107 kDa by SEC; BzdN to residue 376, BzdO to residue 442 (domain borders); with Benzoyl-CoA reductase subunit BzdN
T1 sequence (Z9PSW1D6O9 1-437): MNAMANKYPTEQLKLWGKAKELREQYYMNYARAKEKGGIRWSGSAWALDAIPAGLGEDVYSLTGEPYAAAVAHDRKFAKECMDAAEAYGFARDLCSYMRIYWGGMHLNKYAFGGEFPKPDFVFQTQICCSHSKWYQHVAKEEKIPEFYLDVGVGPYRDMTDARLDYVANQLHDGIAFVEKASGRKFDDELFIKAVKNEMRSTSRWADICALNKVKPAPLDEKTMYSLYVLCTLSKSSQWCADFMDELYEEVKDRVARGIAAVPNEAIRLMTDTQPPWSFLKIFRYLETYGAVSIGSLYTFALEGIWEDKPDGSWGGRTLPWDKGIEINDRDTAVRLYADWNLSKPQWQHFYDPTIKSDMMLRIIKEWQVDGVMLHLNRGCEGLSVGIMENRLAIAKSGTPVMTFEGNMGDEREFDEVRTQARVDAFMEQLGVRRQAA
T1 sequence (Z9U3P4NCS5 1-379 partner): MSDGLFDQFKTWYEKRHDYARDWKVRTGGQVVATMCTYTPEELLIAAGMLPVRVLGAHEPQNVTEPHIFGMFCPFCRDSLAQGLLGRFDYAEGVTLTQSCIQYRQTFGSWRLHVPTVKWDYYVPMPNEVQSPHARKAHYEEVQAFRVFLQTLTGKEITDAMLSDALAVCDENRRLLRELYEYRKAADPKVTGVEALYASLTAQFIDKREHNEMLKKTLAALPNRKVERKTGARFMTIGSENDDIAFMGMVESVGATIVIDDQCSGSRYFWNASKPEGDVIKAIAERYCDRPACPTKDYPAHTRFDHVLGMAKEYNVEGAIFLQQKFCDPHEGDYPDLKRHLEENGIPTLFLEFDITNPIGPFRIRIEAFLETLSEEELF

BzdNO [2] = target: T1, BzdNO; experiment: X-ray crystallography, co-crystal; assay type: binding; conditions: 1.4 Å; 5 mM compound, pH 7.5, anaerobic; non-covalent; active site channel of BzdO in front of [4Fe-4S]-OH2 cluster
BzdNO [3] = target: T1, BzdNO; experiment: X-ray crystallography, co-crystal; also turnover in reverse reaction; assay type: binding; conditions: 5 mM compound, pH 7.5, anaerobic; non-covalent; same site as benzoyl-CoA; substrate of the reverse, viologen-dependent rearomatization
BzdNO [4] = target: T1, BzdNO; experiment: rearomatization of dienoyl-CoA to benzoyl-CoA, UPLC; assay type: biochemical; conditions: artificial electron acceptor 0.5 mM; 0.2 mM dienoyl-CoA, pH 8.8, 30 °C, anaerobic

**Q.** How did the “X-ray crystallography, no ligand added” value (BzdNO [1]) turn out when CC(C)(COP(=O)(O)OP(=O)(O)OC[C@H]1O[C@@H](n2cnc3c(N)ncnc32)[C@H](O)[C@@H]1OP(=O)(O)O)[C@@H](O)C(=O)NCCC(=O)NCCS [CoA] was run?
**A.** Its value is “appears to contain besides several solvent molecules a weakly occupied CoA ligand”.

**Q.** For CC(C)(COP(=O)(O)OP(=O)(O)OC[C@H]1O[C@@H](n2cnc3c(N)ncnc32)[C@H](O)[C@@H]1OP(=O)(O)O)[C@@H](O)C(=O)NCCC(=O)NCCSC(=O)c1ccccc1 [benzoyl-CoA], which “X-ray crystallography, co-crystal” value (BzdNO [2]) is on record?
**A.** The value was “determined in a BzCoA bound (pdb 8SO2), dienoyl-CoA bound (pdb 8S1T)”.

**Q.** Which “X-ray crystallography, co-crystal; also turnover in reverse reaction” value (BzdNO [3]) does the source give for CC(C)(COP(=O)(O)OP(=O)(O)OC[C@H]1O[C@@H](n2cnc3c(N)ncnc32)[C@H](O)[C@@H]1OP(=O)(O)O)[C@@H](O)C(=O)NCCC(=O)NCCSC(=O)C1=CCCC=C1 [dienoyl-CoA, cyclohexa-1,5-diene-1-carbonyl-CoA] here?
**A.** Its value is “BzdNO in complex with the product dienoyl-CoA reveals the identical binding mode as the substrate”.

**Q.** How did the “rearomatization of dienoyl-CoA to benzoyl-CoA, UPLC” value (BzdNO [4]) turn out when C[n+]1ccc(-c2cc[n+](C)cc2)cc1 [methyl viologen] was run?
**A.** Its value is “methyl viologen-dependent rearomatization of dienoyl-CoA to BzCoA”.
